According to publication PMC8308721 (Pharmaceutics, 2021):
Several values for one entry are separate records, joined by “and”; a condition that tells them apart may be missing. Identical values can stand only once. Entries after “also recorded” stand apart in the source; their conditions may differ.

Tests used:
[1] = Peptide stability in mouse plasma (UPLC); type: in vitro ADME; details: for Recovered Peptide after 1 h in Mouse Plasma [%]: CD-1 mouse plasma, 37 °C, esters recovered as the corresponding acid
Procedure: (§1) The in vitro stability of peptides was assessed according to a previously described protocol with modifications. Peptides (3 g/L, 49 µL) dissolved in […] (DMSO/TWEEN 80/normal saline (5/5/90, v/v/v) were diluted with pooled mouse dipotassium ethylenediaminetetraacetic acid containing pooled plasma (Innovative Research, Novi, MI, USA) or pooled human cerebrospinal fluid (CSF) (both BioIVT, Westbury, NY, USA) to a total volume of 500 µL. The final peptide concentration was kept constant at 315 µmol/L in all experiments. The mixture was incubated (37 °C, 750 rpm; Thermomixer, Eppendorf AG, Hamburg, Germany) and an aliquot (95 µL) was taken at 0, 5, 15, 60, and 300 min. For peptide quantification, the sample was mixed with aqueous acetonitrile (90%, v/v, 300 µL) containing FA, 0.1% v/v and incubated on ice for 30 min. After two centrifugation steps (21,100× g, 3 min, Sorvall Legend Micro 21R Centrifuge, Thermo Scientific, Waltham, MA, USA), the supernatant (300 µL) was collected, freeze-dried (FreeZone Triad Cascade Benchtop, Labcono, Kansas City, MO, USA), reconstituted in aqueous acetonitrile (4.5%, v/v) containing FA (0.1%, v/v), and stored at −20 °C. Samples were analyzed by ultra-performance liquid chromatography (UPLC).
An ACQUITY UPLC H-Class chromatography system (Waters, Milford, MA, USA) coupled on-line to a photodiode array detector (absorbance recorded at 214 nm, Waters) and to the electrospray ionization source on a mass spectrometer (QDa detector, Waters) operated in the positive ion mode was used. Separation relied on a BEH-C18 column (inner diameter: 1.1 mm; length: 50 mm; particle size: 1.7 µm, Waters) at a flow rate of 0.1 mL/min using a linear aqueous acetonitrile gradient in the presence of FA (0.1%, v/v). Ionization was carried out at a source temperature of 450 °C using a cone voltage of 10 V and a capillary voltage of 1.5 kV. Mass spectra were typically acquired for an m/z range from 50 to 1250 at a sampling rate of 2 points per second. Quantities of the degraded peptides and resulting metabolites were estimated using peak areas of the UV signal at 214 nm relative to the initial peak areas (t = 0). Metabolites were identified using mass spectrometry by detecting the singly charged molecular ions.

C57BL6 mice = details: cited from earlier work
mice = details: mouse, in vivo; cited from earlier work
[2] = day six of treatment; cited from earlier work
female CD-1 mice [3] = test: Formalin foot assay; type: in vivo, mouse; details: morphine 10 mg/kg s.c.
Procedure: On the day of the experiment, mice were acclimatized to the experimental setup by putting them in darkened, non-transparent plexiglas cylinders (height, 20 cm; diameter, 9 cm) placed on a glass plane for 2 h. […] After successful injection, mice were immediately placed into cylinders and their behavior was monitored for 1 h. Video cameras (Lorex Technology, Markham, ON, Canada) underneath each animal were used to record the nociceptive responses defined as licking or biting at the formalin injected right paw. The accumulated licking and biting time of each animal was determined and recorded in 5 min bins. The total response time was plotted as early phase 1 from 0 to 5 min, and late phase 2 from 20 to 40 min after formalin injection.

female CD-1 mice [4] = test: Respiratory depression assay; type: in vivo, mouse
Procedure: The respiratory rate was assessed in awake mice lightly restrained in a well-ventilated 50 mL falcon tube with a darkened tip. Prior to the drug treatment, each animal was habituated in the tube for 30 min. The falcon tube was secured onto a stand facing lengthwise towards a video camera. […] Animals were recorded at selected time points for 10 min to measure the respiration rate.

female CD-1 mice [5] = test: Dependence study, Nlx-induced jumps; details: 8 days, Nlx 4 mg/kg i.p.
Procedure: Two hours after the last injection at 3 PM, mice received an i.p. injection of Nlx (4 mg/kg), after which they were immediately placed in a Plexiglas cylinder (height, 30 cm; diameter, 25 cm). The number of jumps induced by Nlx, defined as simultaneous removal of all four paws from the ground surface, were counted.

female CD-1 mice [6] = test: Hot-plate test; type: in vivo, mouse; details: for Antinociception (AUC0-5h, %MPE·h): s.c. 20 µmol/kg (~13 mg/kg), female CD-1 mice
Procedure: Animal use and procedures were in accordance with the guidelines of The University of British Columbia animal care committee and the Canadian Council for Animal Care (CCAC, Protocol code: A17-0128, approval date: 30 August 2018). Experiments involved adult female CD-1 mice (25–30 g) housed under a 12 h light/dark cycle and had ad libitum access to rodent chow and water. Mice were allowed an acclimatization period of at least one week in the animal facility before experiments. Subcutaneous (s.c.) or intraperitoneal (i.p.) injections of drugs or vehicles were administered to animals at a volume of 10 mL/kg. In the formalin foot assay, each mouse was used once and euthanized immediately upon completion of the experiment due to irreversible tissue damage in the injected paw.
(§2) A commercially available hot-plate analgesia meter consisting of a round aluminum surface with (25 cm diameter) from Harvard Apparatus (Holliston, MA, USA) was used. A day before the experiment mice were acclimatized for 5 min in a transparent Plexiglas cylinder (height, 30 cm; diameter, 25 cm) on the switched-off hot-plate apparatus. Thereafter, the baseline latency of each animal was measured on the hot surface (52.0 ± 0.1 °C, 30 s cut-off time to prevent tissue damage) until a nociceptive response was induced. The animal was immediately removed from the hot surface after licking, lifting, or fluttering of the hind paws was observed. Latency responses after treatment were obtained in the same way. The %MPE for each animal was calculated using this equation: %MPE = (LR − BR)/(MR − BR)100%, where LR, MR, and BR represent measured, maximum (30 s), and baseline (~5 s) response time, respectively. The AUC for each animal was calculated from the %MPE time courses using this equation: AUC = (%MPE(Tp1) + %MPE(Tp2))·(Tp2 − Tp1)/2, where Tp represents the time interval between adjacent time points on the curve. Data were plotted as mean ± SEM.

plasma = details: cited from earlier work
[7] = pooled mouse dipotassium ethylenediaminetetraacetic acid containing pooled plasma; details: 37 °C, up to 300 min
[8] = Peptide stability in human cerebrospinal fluid (UPLC); type: in vitro ADME; details: pooled human cerebrospinal fluid, pooled human CSF, read-out: peptide recovered in CSF after 5 h of incubation
Procedure: as §1, with “After two centrifugation steps (21,100× g, 3 min, Sorvall Legend Micro 21R Centrifuge, Thermo Scientific, Waltham, MA, USA), the supernatant (300 µL) was collected, freeze-dried (FreeZone Triad Cascade Benchtop, Labcono, Kansas City, MO, USA), reconstituted in aqueous acetonitrile (4.5%, v/v) containing FA (0.1%, v/v), and stored at −20 °C.” left out
An ACQUITY UPLC H-Class chromatography system (Waters, Milford, MA, USA) coupled on-line to a photodiode array detector (absorbance recorded at 214 nm, Waters) and to the electrospray ionization source on a mass spectrometer (QDa detector, Waters) operated in the positive ion mode was used. […] Quantities of the degraded peptides and resulting metabolites were estimated using peak areas of the UV signal at 214 nm relative to the initial peak areas (t = 0). […]

female CD-1 mice [9] = test: Safety test in mice, escalating doses; type: in vivo, mouse
Description: (§3) Throughout the eight-day duration of experiments investigating the development of physical dependence and tolerance, clinical health scores (CHS) of mice on a 5-point scale (0 normal and 5 highest severity) provided by the University of British Columbia Animal Care Committee were monitored. Scores were given in 5 categories (appearance (grooming, posture), behavior (gait, activity), local injection site skin appearance, neurological signs, and body weight). Based on the guidelines, mice with a score of 5 in any category or a cumulative score of >15, or body weight loss of >20% would be euthanized.
Mice were then monitored for mortality and clinical signs including respiratory activity, body weight, hydration, behavior (self-biting and circling), and pain assessment (Facial Grimace) to determine the maximum tolerated dose.

female CD-1 mice [10] = test: Tolerance study, hot-plate after repeated dosing; type: in vivo, mouse; details: multidose tolerance and physical dependence tests, 5-point scale
Description: as §3
as §2, with “A day before the experiment mice were acclimatized for 5 min in a transparent Plexiglas cylinder (height, 30 cm; diameter, 25 cm) on the switched-off hot-plate apparatus.” left out, “The animal was immediately removed from the hot surface after licking, lifting, or fluttering of the hind paws was observed. Latency responses after treatment were obtained in the same way.” left out, “Data were plotted as mean ± SEM.” left out

human DOR = molecular target: T1, human DOR (Homo sapiens, UniProt P41143); test: Competitive radioligand ([3H]DADLE) displacement assay at DOR; type: binding; details: analog at 6 nM
T1 construct: host or cells: COS-1 cells
T1 sequence (P41143 whole entry): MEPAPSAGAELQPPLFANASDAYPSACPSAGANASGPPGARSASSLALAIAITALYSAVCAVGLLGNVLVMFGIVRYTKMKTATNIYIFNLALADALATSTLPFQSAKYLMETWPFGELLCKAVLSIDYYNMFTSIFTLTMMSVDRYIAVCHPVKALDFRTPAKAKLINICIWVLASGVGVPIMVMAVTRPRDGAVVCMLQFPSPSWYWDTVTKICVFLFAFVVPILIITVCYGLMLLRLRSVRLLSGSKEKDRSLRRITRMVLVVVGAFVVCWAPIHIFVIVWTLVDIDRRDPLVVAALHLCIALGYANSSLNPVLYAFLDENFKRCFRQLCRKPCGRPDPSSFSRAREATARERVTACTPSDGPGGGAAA
Procedure: The binding affinity of peptides to the DOR was performed by Eurofins Cerep SA (Celle-Lévescault, France) using a competitive radioligand displacement assay according to a previously described method.

[11] = morphine s.c. 10 mg/kg, hot-plate

## C=CCCC(=O)N[C@@H](Cc1ccc(O)cc1)C(=O)NCC(=O)NCC(=O)N[C@@H](Cc1ccccc1)C(=O)N[C@@H](CC(C)C)C(=O)OC [KK-105]
[1]
  Recovered Peptide after 1 h in Mouse Plasma [%]: 80 ± 7%

## CN1CC[C@]23c4c5ccc(O)c4O[C@H]2[C@@H](O)C=C[C@H]3[C@H]1C5 [morphine]
C57BL6 mice
  time of peak effect: 20 min
mice
  decrease of breathing rate: 1.7 fold
[2]
  residual effect of morphine: approximately 30%
Female CD-1 mice [3]; phase 1 (0–5 min)
  reduction of paw licking and biting time compared to control, phase 1: 30%
Female CD-1 mice [3]; phase 2 (20–40 min)
  nociceptive response, phase 2: completely diminished the nociceptive response
Female CD-1 mice [4]; morphine 10 mg/kg s.c., 30 min post-injection
  decrease of respiratory rate compared with vehicle: 56%
Female CD-1 mice [5]; morphine 10 mg/kg twice daily
  physical dependence, Nlx-induced withdrawal: significant withdrawal syndromes
Female CD-1 mice [6]; morphine s.c. 10 mg/kg, 2 h
  antinociception at 2 h: ~ 10 %MPE
Female CD-1 mice [6]; [11]
  maximum antinociception: 87 %MPE
  time to maximum antinociception: ≤ 15 min

## COC(=O)[C@H](CC(C)C)NC(=O)[C@H](Cc1ccccc1)NC(=O)CNC(=O)CNC(=O)[C@H](Cc1ccc(O)cc1)NC(=O)C(C)(C)C [KK-102]
[1]
  Recovered Peptide after 1 h in Mouse Plasma [%]: 94 ± 5% and 94 ± 3%
[1]; mouse, plasma
  half-life: 2.5 min
Female CD-1 mice [6]; hot-plate, s.c. ~13 mg/kg
  increase of antinociception AUC compared to Leu-ENK: 8 fold
Female CD-1 mice [6]; hot-plate
  Antinociception (AUC0-5h, %MPE·h): 112 %MPE·h and 112 ± 24 %MPE·h

## CCCCCCCC(=O)N[C@@H](Cc1ccc(O)cc1)C(=O)NCC(=O)NCC(=O)N[C@@H](Cc1ccccc1)C(=O)N[C@@H](CC(C)C)C(=O)OC [KK-108]
[1]
  Recovered Peptide after 1 h in Mouse Plasma [%]: 73 ± 4%
Female CD-1 mice [6]; hot-plate
  Antinociception (AUC0-5h, %MPE·h): 48 ± 15 %MPE·h

## COC(=O)[C@H](CC(C)C)NC(=O)[C@H](Cc1ccccc1)NC(=O)CNC(=O)CNC(=O)[C@H](Cc1ccc(O)cc1)NC(C)=O [KK-14]
[1]
  Recovered Peptide after 1 h in Mouse Plasma [%]: 82 ± 5%

## H2N-YGGFL-COOH
plasma
  cleaved bond: Tyr-Gly, first_seen; also recorded: Gly-Phe
[7]
  fragment found: H2N-GGFL-COOH, major; also recorded: H2N-FL-COOH, major

## CC(C)C[C@H](NC(=O)[C@H](Cc1ccccc1)NC(=O)CNC(=O)CNC(=O)[C@@H](N)Cc1ccc(O)cc1)C(=O)O [Leu-ENK, Leu-Enkephalin]
[1]; 5 h, plasma
  intact peptide remaining in plasma after 5 h of incubation: undetectable
[1]
  Recovered Peptide after 1 h in Mouse Plasma [%]: 23 ± 3% and 23 ± 2%
[8]
  remaining at 5 h, 315 µmol/L: > 80%
Female CD-1 mice [6]; hot-plate
  Antinociception (AUC0-5h, %MPE·h): 14 %MPE·h and 14 ± 6 %MPE·h
Female CD-1 mice [6]; s.c. 13 mg/kg, hot-plate
  peak antinociception: ~ 10 %MPE
  time of decline of antinociception to baseline: 1.5 h
  time of peak antinociception post-injection: 1 h

## CC(C)C[C@H](NC(=O)[C@H](Cc1ccccc1)NC(=O)CNC(=O)CNC(=O)[C@H](Cc1ccc(O)cc1)NC(=O)C(C)(C)C)C(=O)O [KK-103]
Female CD-1 mice [9]; s.c. 650 mg/kg
  abnormal behaviors / clinical scores at maximum deliverable dose: did not show any signs of abnormal behaviors
Female CD-1 mice [9]; s.c., limited by solubility
  maximum deliverable dose (safe): 650 mg/kg
Female CD-1 mice [10]
  clinical health score (CHS): 0
Female CD-1 mice [4]; KK-103 13 mg/kg s.c., 30 to 240 min
  respiration rate versus vehicle: comparable to that of mice treated with vehicle
[1]
  Recovered Peptide after 1 h in Mouse Plasma [%]: 93 ± 1%
[1]; mouse plasma in vitro, extrapolated from 5 h incubation
  extrapolated plasma half-life: 37 h
[1]; mouse, pooled mouse K2EDTA plasma, 5 h, plasma, read-out: intact peptide remaining in plasma after 5 h of incubation
  remaining at 5 h, 315 µmol/L: > 90%
[1]; plasma in vitro
  increase of plasma half-life over Leu-ENK: ~ 90 fold and 90 fold
[8]
  remaining at 5 h, 315 µmol/L: > 95%
Female CD-1 mice [5]; KK-103 13 mg/kg twice daily
  physical dependence, Nlx-induced jumps in first 10 min: not a single jump was observed

## COC(=O)[C@H](CC(C)C)NC(=O)[C@H](Cc1ccccc1)NC(=O)CNC(=O)CNC(=O)[C@H](Cc1ccc(O)cc1)NC(=O)C1CCCCC1 [KK-112]
[1]
  Recovered Peptide after 1 h in Mouse Plasma [%]: 62 ± 4%
Female CD-1 mice [6]; hot-plate
  Antinociception (AUC0-5h, %MPE·h): 51 ± 10 %MPE·h

## COC(=O)[C@H](CC(C)C)NC(=O)[C@H](Cc1ccccc1)NC(=O)CNC(=O)CNC(=O)[C@H](Cc1ccc(O)cc1)NC(=O)Cc1ccccc1 [KK-81]
Human DOR
  Relative Binding to DOR Compared to Leu-ENK [%]: 41 ± 25%
[1]
  Recovered Peptide after 1 h in Mouse Plasma [%]: 88 ± 7%

## CCCCCC(=O)N[C@@H](Cc1ccc(O)cc1)C(=O)NCC(=O)NCC(=O)N[C@@H](Cc1ccccc1)C(=O)N[C@@H](CC(C)C)C(=O)OC [KK-93]
[1]
  Recovered Peptide after 1 h in Mouse Plasma [%]: 85 ± 7%
Female CD-1 mice [6]; hot-plate
  Antinociception (AUC0-5h, %MPE·h): 51 ± 13 %MPE·h
